Assay results: PMC4728427, “Mechanism of allosteric activation of TMEM16A/ANO1 channels by a commonly used chloride channel blocker” (British Journal of Pharmacology, 2016)
Like-named read-outs stand apart in the source and are kept apart here.

Key:
Mouse TMEM16A = molecular target: T1, Mouse TMEM16A (Mus musculus, UniProt Q8BHY3); assay: Whole-cell [A9C]ext-inhibition relationship (Hill and Woodhull fits), 12.5 μM [Ca2+]i; type: cell-based
T1 construct: expressed in transfected cells; host or cells: HEK-293T
T1 sequence (Q8BHY3 1-960): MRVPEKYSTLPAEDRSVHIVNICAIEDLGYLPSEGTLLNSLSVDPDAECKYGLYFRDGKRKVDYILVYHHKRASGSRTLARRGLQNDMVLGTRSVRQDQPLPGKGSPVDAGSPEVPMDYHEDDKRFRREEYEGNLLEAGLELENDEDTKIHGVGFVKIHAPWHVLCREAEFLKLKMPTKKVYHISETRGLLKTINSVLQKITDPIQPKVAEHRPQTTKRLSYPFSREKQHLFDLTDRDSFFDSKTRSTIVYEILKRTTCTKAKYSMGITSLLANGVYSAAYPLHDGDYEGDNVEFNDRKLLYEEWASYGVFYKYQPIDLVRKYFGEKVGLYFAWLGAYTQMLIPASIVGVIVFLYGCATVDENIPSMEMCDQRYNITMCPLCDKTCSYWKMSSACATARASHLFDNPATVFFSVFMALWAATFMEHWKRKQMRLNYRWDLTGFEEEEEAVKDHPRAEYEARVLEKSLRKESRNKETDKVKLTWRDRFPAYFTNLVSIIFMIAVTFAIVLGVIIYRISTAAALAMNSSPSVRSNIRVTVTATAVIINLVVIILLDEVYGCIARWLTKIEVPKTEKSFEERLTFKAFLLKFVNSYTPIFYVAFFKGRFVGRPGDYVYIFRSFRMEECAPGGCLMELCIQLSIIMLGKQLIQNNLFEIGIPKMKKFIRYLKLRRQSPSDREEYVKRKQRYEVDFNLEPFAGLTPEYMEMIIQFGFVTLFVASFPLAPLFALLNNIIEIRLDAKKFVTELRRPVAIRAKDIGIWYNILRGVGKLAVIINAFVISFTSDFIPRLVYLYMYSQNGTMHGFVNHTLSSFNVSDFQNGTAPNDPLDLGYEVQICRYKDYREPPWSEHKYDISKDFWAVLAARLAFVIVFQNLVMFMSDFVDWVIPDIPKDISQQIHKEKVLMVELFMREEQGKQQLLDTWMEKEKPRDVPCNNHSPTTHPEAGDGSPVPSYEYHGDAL
Experimental: Mouse TMEM16A (GenBank NM_178642) subcloned into pcDNA3.1 vector was used in this study (Alexander et al., 2013). HEK‐293T cells were cultured as previously described (Smith et al., 2013) and transfected with 0.5–1 μg of TMEM16A and 0.1 μg of CD8 constructs using Fugene HD (Promega, Madison, WI, USA) according to the manufacturer's instructions. Cells were used ~12–36 h after transfection. Transfected cells were visualized using the anti‐CD8 antibody‐coated beads method (Jurman et al., 1994).
The intracellular solution contained (mM) 130 CsCl, 10 EGTA, 1 MgCl2, 10 HEPES and 8 CaCl2 to obtain ~300 nM of [Ca^2+]i; pH was adjusted to 7.3 with NaOH. The intracellular solutions containing ~600 nM, ~1000 nM and ~12.5 μM [Ca^2+]i were obtained by replacing EGTA with equimolar H‐EDTA and by adding 2.1, 3.1 and 7.8 mM CaCl2 respectively. The extracellular solution contained (mM) 150 NaCl, 1 CaCl2, 1 MgCl2, 10 glucose, 10 D‐mannitol and 10 HEPES; pH was adjusted to 7.4 with NaOH. […] A9C was dissolved in DMSO (stock concentration, 300 mM); thus, the final concentration of DMSO was ≤1%. Aliquots of the stock solution were kept at −20° and used within 5 days.
The relationship between [A9C] and TMEM16A current inhibition was obtained by measuring the currents at the end of 250 ms V m steps from +20 to +120 mV in 20 mV increments elicited every 2 s from a holding V m of −70 mV. TMEM16A currents measured in the presence of A9C (I b) were normalized to currents measured in the absence of A9C (I 0) and plotted against [A9C]. The concentration–response curves obtained were fit with the Hill equation of the form: (1) Ib/Io=1/1+A9C/Ki^γ,
where K i is the apparent A9C dissociation constant from the inhibitory site and γ is the coefficient of cooperativity (Hill coefficient).
The relationships between the K i or K d and V m were fitted with the Woodhull equation (Woodhull, 1973): (3) Kx=Kx0exp−δxzFVm/RT.
The subscript ‘x’ stands for either ‘i’ or ‘d’. Thus, K i(0) or K d(0) are the apparent A9C dissociation constants from the inhibitory or activating site at 0 mV, z is the A9C electric valence (−1), δ i or δ d is the fraction of the V m sensed by A9C when bound to the inhibitory or activating site, F is Faraday's constant, R is the universal gas constant and T is the absolute temperature.
To investigate the precise mechanism by which extracellular A9C inhibits TMEM16A channels, macroscopic whole‐cell currents were recorded in the presence of 12.5 μM [Ca^2+]i and in response to 250 ms steps to various V m test pulse from a holding V m of −70 mV. The negative holding V m was used to prevent channel block before the test pulse was elicited. […] The time‐course of this decrease was described by a single‐exponential function characterized by a time constant τ B. The extent of the decrease in current was measured for various [A9C]ext and various V m test pulse and then plotted relative to the current measured in the absence of A9C (I 0) (Figure 3B). The γ values were close to 1 at each V m. In contrast, K i decreased as the V m was increased (Figure 3C). […] Thus, A9C appeared to block TMEM16A channels according to a Woodhull mechanism, consistent with a single A9C molecule blocking the channel pore.

[1] = tested on: native CaCCs in rabbit pulmonary artery smooth muscle cells; details: cited from earlier work

Ki (Mouse TMEM16A; 12.5 μM [Ca2+]i (rounded in Discussion), read-out: K i(0)): ~300 µM
δ i (fraction of Vm sensed at inhibitory site, Woodhull fit) (Mouse TMEM16A; 12.5 μM [Ca2+]i, extracellular A9C): 0.62 ± 0.03
Ki (Mouse TMEM16A; 12.5 μM [Ca2+]i, extracellular A9C, read-out: K i(0) (apparent dissociation constant from inhibitory site at 0 mV)): 322 ± 13 µM
Ki (Mouse TMEM16A; +80 mV, mouse TMEM16A (rounded in Discussion), read-out: K i): ~50 µM
γ (slope factor, inhibition) (Mouse TMEM16A; V m 20, 12.5 μM [Ca2+]i): 0.86 ± 0.14 (n = 8)
Ki (Mouse TMEM16A; V m 20, 12.5 μM [Ca2+]i, [A9C]ext, unit inferred, read-out: K i (Hill fit of inhibition)): 198 ± 47 µM
γ (slope factor, inhibition) (Mouse TMEM16A; V m 40, 12.5 μM [Ca2+]i): 0.85 ± 0.15 (n = 8)
Ki (Mouse TMEM16A; V m 40, 12.5 μM [Ca2+]i, [A9C]ext, unit inferred, read-out: K i (Hill fit of inhibition)): 113 ± 26 µM
γ (slope factor, inhibition) (Mouse TMEM16A; V m 60, 12.5 μM [Ca2+]i): 0.8 ± 0.2 (n = 8)
Ki (Mouse TMEM16A; V m 60, 12.5 μM [Ca2+]i, [A9C]ext, unit inferred, read-out: K i (Hill fit of inhibition)): 68 ± 20 µM
γ (slope factor, inhibition) (Mouse TMEM16A; V m 80, 12.5 μM [Ca2+]i): 0.8 ± 0.17 (n = 8)
Ki (Mouse TMEM16A; V m 80, 12.5 μM [Ca2+]i, [A9C]ext, unit inferred, read-out: K i (Hill fit of inhibition)): 44 ± 10 µM
γ (slope factor, inhibition) (Mouse TMEM16A; V m 100, 12.5 μM [Ca2+]i): 0.8 ± 0.23 (n = 8)
Ki (Mouse TMEM16A; V m 100, 12.5 μM [Ca2+]i, [A9C]ext, unit inferred, read-out: K i (Hill fit of inhibition)): 31 ± 12 µM
γ (slope factor, inhibition) (Mouse TMEM16A; V m 120, 12.5 μM [Ca2+]i): 0.71 ± 0.16 (n = 8)
Ki (Mouse TMEM16A; V m 120, 12.5 μM [Ca2+]i, [A9C]ext, unit inferred, read-out: K i (Hill fit of inhibition)): 20 ± 8 µM
electric distance of inhibiting binding site (δ i) (Mouse TMEM16A; Woodhull analysis, rounded): ~ 0.6
penetration into the pore length (voltage field) to reach inhibitory site (Mouse TMEM16A; from δ i): approximately 60%
γ from Hill fit of [A9C]ext-inhibition relationships (Mouse TMEM16A; rounded in Discussion): ≈ 1
SMILES: O=C(O)c1c2ccccc2cc2ccccc12 [A9C, Anthracene‐9‐carboxylic acid]
E rev of native CaCC currents ([1]; ref Piper and Greenwood (2003)): did not change
native CaCC tail current increase ([1]; −80 mV, 500 μM A9C, ref Piper and Greenwood, 2003): ~ 3 fold
